Assay results from PubChem BioAssay AID248 (DTP/NCI, 2004).
Several values for one entry are separate records, joined by “and”; a condition that tells them apart may be missing. Equal entries are not always repeated. Inconclusive results and toxic doses are left out. Cut-off read from the data, not from the text of the source: active = T/C of 150% or more; inactive = T/C below 125%.

Test system: L1210 leukemia ip in BDF1 mice, survival T/C
Experiment: NCI In Vivo Anticancer Drug Screen. Data for tumor model L1210 Leukemia (intraperitoneal) in B6D2F1 (BDF1) mice
Details: endpoint: mean survival time, higher = longer survival
In short: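 Each compound was tested against a transplantable tumor grown in mice. The endpoint was survival, with treated animals benchmarked against vehicle controls as a simple ratio.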

[1] = dose: 50.0 mg/kg/injection, schedule: Q01DX009 (ip), vehicle: saline
[2] = dose: 75.0 mg/kg/injection, schedule: Q01DX009 (ip), vehicle: saline
[3] = dose: 100.0 mg/kg/injection, schedule: Q01DX009 (ip), vehicle: saline
[4] = dose: 100.0 mg/kg/injection, schedule: Q04DX003 (ip), vehicle: saline
[5] = dose: 200.0 mg/kg/injection, schedule: Q04DX003 (ip), vehicle: saline
[6] = dose: 100.0 mg/kg/injection, schedule: Q04DX002 (ip), vehicle: Klucel (hydroxypropylcellulose) (HPC)
[7] = dose: 200.0 mg/kg/injection, schedule: Q04DX002 (ip), vehicle: Klucel (hydroxypropylcellulose) (HPC)
[8] = dose: 400.0 mg/kg/injection, schedule: Q04DX002 (ip), vehicle: Klucel (hydroxypropylcellulose) (HPC)
[9] = dose: 50.0 mg/kg/injection, schedule: Q01DX009 (ip), vehicle: Klucel (hydroxypropylcellulose) (HPC)
[10] = dose: 100.0 mg/kg/injection, schedule: Q01DX009 (ip), vehicle: Klucel (hydroxypropylcellulose) (HPC)
[11] = dose: 200.0 mg/kg/injection, schedule: Q01DX009 (ip), vehicle: Klucel (hydroxypropylcellulose) (HPC)
[12] = dose: 100.0 mg/kg/injection, schedule: Q01DX001 (ip), vehicle: saline
[13] = dose: 200.0 mg/kg/injection, schedule: Q01DX001 (ip), vehicle: saline
[14] = dose: 400.0 mg/kg/injection, schedule: Q01DX001 (ip), vehicle: saline

Measured: T/C

CCCCOP(=O)(c1ccccc1)N1CCCCC1 (centres undefined)
inactive: dose: 25.0 mg/kg/injection, schedule: Q04DX002 (ip), vehicle: saline with Tween-80 103 % of control | dose: 50.0 mg/kg/injection, schedule: Q04DX002 (ip), vehicle: saline with Tween-80 103 % of control | dose: 100.0 mg/kg/injection, schedule: Q04DX002 (ip), vehicle: saline with Tween-80 92 % of control and 107 % of control

c1ccc(N2CCN(c3ccccc3)C2c2ccc3c(c2)CCC3)cc1
inactive: dose: 100.0 mg/kg/injection, schedule: Q04DX003 (ip), vehicle: saline with Tween-80 92 % of control | dose: 200.0 mg/kg/injection, schedule: Q04DX003 (ip), vehicle: saline with Tween-80 90 % of control | dose: 400.0 mg/kg/injection, schedule: Q04DX003 (ip), vehicle: saline with Tween-80 104 % of control

CNc1ccc(OC)cc1
inactive: dose: 100.0 mg/kg/injection, schedule: Q01DX009 (ip), vehicle: other 95 % of control | dose: 100.0 mg/kg/injection, schedule: Q04DX003 (ip), vehicle: other 101 % of control | dose: 200.0 mg/kg/injection, schedule: Q01DX009 (ip), vehicle: other 111 % of control | dose: 200.0 mg/kg/injection, schedule: Q04DX003 (ip), vehicle: other 101 % of control | dose: 400.0 mg/kg/injection, schedule: Q01DX009 (ip), vehicle: other 124 % of control | dose: 400.0 mg/kg/injection, schedule: Q04DX003 (ip), vehicle: other 104 % of control

CC(C)C[C@H](O)C(=O)O
inactive: dose: 33.0 mg/kg/injection, schedule: Q01DX009 (ip), vehicle: saline 98 % of control | [1] 98 % of control | [2] 98 % of control | [3] 97 % of control | [4] 98 % of control | dose: 200.0 mg/kg/injection, schedule: Q01DX009 (ip), vehicle: saline 101 % of control | [5] 100 % of control

Cn1cccc1/C=N/O
inactive: [6] 98 % of control | [7] 98 % of control | [8] 117 % of control

N#CCC(C#N)N1CCCCC1 (centres undefined)
inactive: dose: 0.39 mg/kg/injection, schedule: Q01DX009 (ip), vehicle: other 100 % of control | dose: 0.78 mg/kg/injection, schedule: Q01DX009 (ip), vehicle: other 96 % of control | dose: 1.56 mg/kg/injection, schedule: Q01DX009 (ip), vehicle: other 94 % of control | dose: 3.12 mg/kg/injection, schedule: Q04DX003 (ip), vehicle: other 94 % of control | dose: 6.25 mg/kg/injection, schedule: Q04DX003 (ip), vehicle: other 100 % of control | dose: 12.5 mg/kg/injection, schedule: Q01DX001 (ip), vehicle: other 103 % of control | dose: 12.5 mg/kg/injection, schedule: Q04DX003 (ip), vehicle: other 100 % of control

COc1ccccc1N1CCN(CCCC(=O)c2ccc(F)cc2)CC1
inactive: dose: 12.5 mg/kg/injection, schedule: Q01DX009 (ip), vehicle: Klucel (hydroxypropylcellulose) (HPC) 96 % of control | dose: 25.0 mg/kg/injection, schedule: Q01DX009 (ip), vehicle: Klucel (hydroxypropylcellulose) (HPC) 105 % of control | dose: 25.0 mg/kg/injection, schedule: Q04DX003 (ip), vehicle: Klucel (hydroxypropylcellulose) (HPC) 108 % of control | [9] 105 % of control | dose: 50.0 mg/kg/injection, schedule: Q04DX003 (ip), vehicle: Klucel (hydroxypropylcellulose) (HPC) 111 % of control | [10] 122 % of control | dose: 100.0 mg/kg/injection, schedule: Q04DX003 (ip), vehicle: Klucel (hydroxypropylcellulose) (HPC) 116 % of control | dose: 200.0 mg/kg/injection, schedule: Q04DX003 (ip), vehicle: Klucel (hydroxypropylcellulose) (HPC) 111 % of control

N#CC(C#N)C1c2ccccc2Nc2ccccc21
inactive: dose: 12.5 mg/kg/injection, schedule: Q01DX009 (ip), vehicle: saline with Tween-80 89 % of control | dose: 25.0 mg/kg/injection, schedule: Q01DX009 (ip), vehicle: saline with Tween-80 89 % of control | dose: 50.0 mg/kg/injection, schedule: Q01DX009 (ip), vehicle: saline with Tween-80 98 % of control and 89 % of control

CC1CC/C(=C\c2ccccc2)C(=O)/C1=C/c1ccccc1 (centres undefined)
inactive: dose: 25.0 mg/kg/injection, schedule: Q01DX009 (ip), vehicle: DMSO 92 % of control | dose: 50.0 mg/kg/injection, schedule: Q01DX009 (ip), vehicle: DMSO 94 % of control | dose: 100.0 mg/kg/injection, schedule: Q01DX009 (ip), vehicle: DMSO 94 % of control and 91 % of control | dose: 100.0 mg/kg/injection, schedule: Q04DX003 (ip), vehicle: DMSO 105 % of control | dose: 200.0 mg/kg/injection, schedule: Q01DX009 (ip), vehicle: DMSO 102 % of control | dose: 200.0 mg/kg/injection, schedule: Q04DX003 (ip), vehicle: DMSO 100 % of control | dose: 400.0 mg/kg/injection, schedule: Q04DX003 (ip), vehicle: DMSO 95 % of control

O=C1NC2(CCCCC2)NC12CCCCC2
inactive: dose: 25.0 mg/kg/injection, schedule: Q01DX009 (ip), vehicle: saline 118 % of control | [1] 110 % of control | [3] 106 % of control

CN(C)Cc1ccccc1COC(=O)c1ccccc1
inactive: [6] 119 % of control | [7] 105 % of control | [8] 97 % of control

Cc1ccc(P(=O)(O)O)cc1C
inactive: dose: 37.5 mg/kg/injection, schedule: Q01DX009 (ip), vehicle: saline 101 % of control | [9] 101 % of control | [2] 89 % of control | [10] 95 % of control | [4] 100 % of control | dose: 150.0 mg/kg/injection, schedule: Q01DX009 (ip), vehicle: saline 87 % of control | [11] 101 % of control | [5] 88 % of control

NC(=O)N/N=C\c1ccc(O)cn1
inactive: dose: 100.0 mg/kg/injection, schedule: Q04DX003 (ip), vehicle: acetone 98 % of control | dose: 200.0 mg/kg/injection, schedule: Q04DX003 (ip), vehicle: acetone 93 % of control | dose: 400.0 mg/kg/injection, schedule: Q04DX003 (ip), vehicle: acetone 96 % of control

O=C(NC1CCCCC1)C1COc2ccccc2O1 (centres undefined)
inactive: dose: 100.0 mg/kg/injection, schedule: Q01DX001 (ip), vehicle: Klucel (hydroxypropylcellulose) (HPC) 98 % of control | [10] 95 % of control | dose: 200.0 mg/kg/injection, schedule: Q01DX001 (ip), vehicle: Klucel (hydroxypropylcellulose) (HPC) 108 % of control | [11] 93 % of control | dose: 400.0 mg/kg/injection, schedule: Q01DX001 (ip), vehicle: Klucel (hydroxypropylcellulose) (HPC) 98 % of control | dose: 400.0 mg/kg/injection, schedule: Q01DX009 (ip), vehicle: Klucel (hydroxypropylcellulose) (HPC) 97 % of control

Cn1c(=O)c2c(nc(CCCC3CCCCC3)n2C)n(C)c1=O
inactive: dose: 50.0 mg/kg/injection, schedule: Q01DX001 (ip), vehicle: saline 103 % of control | [12] 97 % of control | [13] 111 % of control | [14] 103 % of control

OC12CCCCC1Oc1ccc3ccccc3c12 (centres undefined)
inactive: [12] 103 % of control | [13] 113 % of control | [14] 100 % of control

CCCCN(C(C)(C)C(SSSC(c1ccc(Cl)cc1)C(C)(C)N(CCCC)S(C)(=O)=O)c1ccc(Cl)cc1)S(C)(=O)=O (centres undefined)
inactive: dose: 100.0 mg/kg/injection, schedule: Q01DX009 (ip), vehicle: saline with Tween-80 96 % of control | dose: 200.0 mg/kg/injection, schedule: Q01DX009 (ip), vehicle: saline with Tween-80 86 % of control
